According to patent US7049323B2, “Amidoheterocycles as modulators of the melanocortin-4 receptor” (Bristol-Myers Squibb Company, priority 2003, dated 2006):

Experiments:
[1] = tested on: Rodents (NPY, ob/ob, agouti, fasted feeding models); settings: injected intracerebroventricularly (ICV); cited from earlier work
[2] = tested on: male volunteers / patients with psychogenic erectile dysfunction; settings: cited from earlier work
[3] = target: T1, cloned human MC4R receptors (Homo sapiens, UniProt P32245); experiment: Melanocortin MC4R membrane binding assay ([125I]NDP-α-MSH competition); settings: [125I]NDP-α-MSH 0.1 nM, membranes of Hi5 insect cells or HEK-293 cells, 90 minutes at 37° C.
T1 construct: expressed in transfected cells; host or cells: Hi5 insect cells or HEK-293 cells (baculovirus/human MC4R receptor construct); membranes
Experimental: Melanocortin MC4R Binding Assay. […] A membrane binding assay was used to identify competitive ligands of [^125I]NDP-α-MSH binding to cloned human MC4R receptors expressed in Hi5 insect cells or HEK-293 cells transfected by a baculovirus/human MC4R receptor construct. The membrane binding buffer was composed of 25 mM HEPES, pH 7.4, 140 mM NaCl, 1.2 mM MgCl2, 2.5 mM CaCl2, and 0.1% BSA Membrane protein (0.5 μg) and [^125I]-NDP-α-MSH (to a final concentration of 0.1 nM) were added. Competing ligands or a buffer blank were added and incubated for 90 minutes at 37° C. After filtration, the cell membranes were evaluated in a Wallac Microbeta Trilux Scintillation and Luminescence Counter (Model 1450). Dose-response cureves were fitted by […] analyses and IC50 values are calculated using ExcelFit.

[4] = intramuscular, 0.005–0.03 mg/kg, three normal male volunteers

T1 sequence (P32245 whole entry): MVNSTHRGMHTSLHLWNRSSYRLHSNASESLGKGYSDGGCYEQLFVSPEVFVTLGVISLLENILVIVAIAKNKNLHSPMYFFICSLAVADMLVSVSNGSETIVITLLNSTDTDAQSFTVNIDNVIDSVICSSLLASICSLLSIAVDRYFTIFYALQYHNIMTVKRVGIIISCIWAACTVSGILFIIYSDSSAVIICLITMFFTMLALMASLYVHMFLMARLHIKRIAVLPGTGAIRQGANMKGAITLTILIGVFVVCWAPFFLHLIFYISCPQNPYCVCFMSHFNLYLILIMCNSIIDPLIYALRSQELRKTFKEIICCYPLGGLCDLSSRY

Row | Compound | IC50 [3] [nM] | also measured
1 | SHU-9119 |  | food intake [1]: reverses this effect and can induce hyperphagia
2 | melanotan-II [MT-II] |  | penile erections [2, 4]: caused intermittent non-painful penile erections; period of erections after dosing [2, 4]: 1 to 5 h; erections ([2]; subcutaneous, 0.025 mg/kg and 0.1 mg/kg, 10 patients with psychogenic erectile dysfunction): caused transient erections; responders ([2]; subcutaneous, 0.025 mg/kg and 0.1 mg/kg, of 10 patients with psychogenic erectile dysfunction): 8; onset of erections ([2]; subcutaneous, 0.025 mg/kg and 0.1 mg/kg, patients with psychogenic erectile dysfunction): 50 to 180 min; food intake [1]: reduced food intake
3 | CN(C)CCC(=O)N[C@H](Cc1ccc(Cl)cc1)C(=O)N1CC(N(C(=O)CC2CCCC2)C2CCCCC2)C1 [Example 8] | 250 to 1000 | 
4 | CN(C)CCC(=O)N[C@H](Cc1ccc(Cl)cc1)C(=O)N1CC(N(C2CCCCC2)S(C)(=O)=O)C1 [Example 4] | 250 to 1000 | 
5 | CN(C)CCC(=O)N[C@H](Cc1ccc(Cl)cc1)C(=O)N1CC(N(C(=O)C2CCCC2)C2CCCCC2)C1 [Example 16] | < 250 | 
6 | CN(C)CCC(=O)N[C@H](Cc1ccc(Cl)cc1)C(=O)N1CC(N(C(=O)COc2ccccc2)C2CCCCC2)C1 [Example 13] | 1000 to 10000 | 
7 | CC(C)CN([C@H]1CCN(C(=O)[C@@H](Cc2ccc(Cl)cc2)NC(=O)CCN)C1)S(C)(=O)=O [Example 49] | 1000 to 10000 | 
8 | CN(C)CCC(=O)N[C@H](Cc1ccc(Cl)cc1)C(=O)N1CC(N(C(=O)Cc2ccccc2)C2CCCCC2)C1 [Example 10] | 250 to 1000 | 
9 | Cc1noc(C)c1C(=O)N(C1CCCCC1)[C@H]1CCN(C(=O)[C@@H](Cc2ccc(Cl)cc2)NC(=O)CCN)C1 [Example 34] | < 250 | 
10 | CC(=O)N(C1CCCCC1)[C@H]1CCN(C(=O)[C@@H](Cc2ccc(Cl)cc2)NC(=O)CCN(C)C)C1 [Example 58] | 1000 to 10000 | 
11 | CC(C)CC(=O)N(C1CCCC1)[C@H]1CCN(C(=O)[C@@H](Cc2ccc(Cl)cc2)NC(=O)CCN)C1 [Example 51] | 250 to 1000 | 
12 | CC(C)C(=O)N(C1CCCCC1)[C@H]1CCN(C(=O)[C@@H](Cc2ccc(Cl)cc2)NC(=O)[C@H]2CCN2C)C1 [Example 68] | 250 to 1000 | 
13 | CC(C)C(=O)N(C1CCCCC1)[C@H]1CCN(C(=O)[C@@H](Cc2ccc(Cl)cc2)NC(=O)[C@@H]2CNCCN2)C1 [Example 46] | < 250 | 
14 | CC(C)CC(=O)N(C(C)C)[C@H]1CCN(C(=O)[C@@H](Cc2ccc(Cl)cc2)NC(=O)[C@@H]2CNCCN2)C1 [Example 42] | 250 to 1000 | 
15 | CS(=O)(=O)N(C1CCCC1)[C@H]1CCN(C(=O)[C@@H](Cc2ccc(Cl)cc2)NC(=O)CCN)C1 [Example 50] | 1000 to 10000 | 
16 | NCCC(=O)N[C@H](Cc1ccc(Cl)cc1)C(=O)N1CC[C@@H](N(C(=O)c2ccccc2)C2CCCCC2)C1 [Example 25] | 250 to 1000 | 
17 | CCCCCC(=O)N(C1CCCCC1)C1CN(C(=O)[C@@H](Cc2ccc(Cl)cc2)NC(=O)CCN(C)C)C1 [Example 15] | 250 to 1000 | 
18 | CN(C)CCC(=O)N[C@H](Cc1ccc(Cl)cc1)C(=O)N1CC[C@H](N(C2CCCCC2)S(C)(=O)=O)C1 [Example 56] | 1000 to 10000 | 
19 | NCCC(=O)N[C@H](Cc1ccc(Cl)cc1)C(=O)N1CC[C@H](N(C(=O)c2ccoc2)C2CCCCC2)C1 [Example 29] | < 250 | 
